Assay results published in patent US20230382998A1, “METHODS FOR TREATING INFLAMMATORY BOWEL DISEASES WITH a4B7 INTEGRIN ANTAGONISTS” (Protagonist Therapeutics, Inc., priority 2022, published 2023).
Numbered stars: 1 amine (or outer) side, 2 acyl side, 3 side chain; on linkers, the order of the positions; unused ones are H or OH. Bridge positions count the residues as written; N and C are the ends. Square brackets hold non-standard residues; d marks the D form. Peptide text beside a SMILES is read from it. I, II: the chains in the order shown. ξ: configuration not given here. Phe(4-tBu) = CC(C)(C)c1ccc(C[C@H](N)C(=O)O)cc1; Diglycolyl = O=C(COCC(=O)[*:2])[*:1]; NMeR = CN[C@@H](CCCNC(=N)N)C(=O)O; β3hE = N[C@@H](CCC(=O)O)CC(=O)O; Thr(3ξ) = CC(O)[C@H](N)C(=O)O; X1 = O=C(c1ccccc1C[*:2])[*:1]; Pen = CC(C)(S)[C@H](N)C(=O)O

Columns and labels:
[1] = system: subjects with moderate to severe active ulcerative colitis; assay: Phase 2 randomized, double-blind, placebo-controlled study of oral Compound (I), 12-week induction; assay type: in vivo, human; conditions: FIG. 3; for proportion of subjects achieving clinical remission at Week 12, total: 150 mg BID + 450 mg BID
Excerpt: As used herein, the term “clinical remission rate” refers to when the symptoms of IBD have lessened to the point that they're mostly absent or gone, including endoscopic remission, wherein inflammation is seen during a colonoscopy or a sigmoidoscopy and determined by a healthcare provider that the lining of the digestive tract is improved or healed. […] As used herein, the term “compound of formula (I)” or Compound (I) refers to a peptide compound having the following structure:
The study also evaluates the pharmacokinetic (PK) and pharmacodynamics (PD) and biomarker responses to treatment with oral Compound (I).
This is a two-part study: Part 1 is a randomized, double-blind, placebo-controlled, parallel design 12-week induction treatment period in patients with moderate to severe active UC; and Part 2 is an extended treatment period of 40 weeks that will include subjects who successfully complete Part 1. Subjects who complete the Week 12 visit for Part 1 will be eligible to enter Part 2.
Part 1 is a 12-week randomized, double-blind, placebo-controlled, parallel design study in adult subjects with moderate to severe active UC. Eligible subjects are randomized 1:1:1 to Compound (I) 450 mg twice daily (BID), Compound (I) 150 mg BID, or placebo BID. Subjects must have a biopsy-confirmed diagnosis of UC. […] Subjects with a history of prior vedolizumab treatment will be excluded. Randomization will be stratified by prior failure to a TNFα antagonist or an IL-12/23 antagonist.
Primary outcome measures include the proportion of subjects achieving clinical remission at Week 12 compared to placebo. Clinical remission is determined using the Adapted Mayo score (sum of 3 subscores from the Mayo score): • Stool frequency subscore (SFS) • Rectal bleeding subscore (RBS) • Endoscopic subscore (ESS)
Efficacy is assessed, at least in part, based on the Mayo score. The Mayo score includes 4 components: Stool Frequency Subscore (SFS), Rectal Bleeding Subscore (RBS), Endoscopic Subscore (ESS) and Physician's Global Assessment (PGA). Each of the individual scores range from 0 to 3 with higher number indicating higher severity): • Complete Mayo Score is a sum of all 4 subscores (SFS, RBS, ESS and PGA) and ranges from 0 to 12 points. • Adapted Mayo Score is a sum of 3 subscores (SFS, RBS and ESS). The Adapted Mayo score ranges from 0 to 9 points. • Partial Mayo Score is a sum of 3 subscores (SFS, RBS and PGA) ranging from 0 to 9 points.
Blood samples for measurement of Compound (I) plasma concentrations will be collected at 0 (within 1 hour pre-dose) and at 1, 2, and 4 hours post-dose on Week 0 (Study Day 1) and Week 12. A single pre-dose sample should be collected within 1 hour prior to the first dose of the day on each clinic visit.
Blood (4 mL) samples for PK analysis will be obtained in K2EDTA tubes prior to dosing and at the time points delineated in the study schedule. All samples (except those collected post-dose on Day 0 and Day 84) should be obtained prior to the daily dosing of study drug (i.e. Ctrough).

[2] = DTT (Dithiothreitol) assay, stability to gastric environment under reduced conditions; assay type: physicochemical
Experimental: The compound of formula (I) or a pharmaceutically acceptable salt thereof comprises a half-life from approximately 1 minute to approximately 180 minutes.

[3] = trough concentration quartile Q1 at week 12
[4] = trough concentration quartile Q2 at week 12
[5] = trough concentration quartile Q3 at week 12
[6] = trough concentration quartile Q4 at week 12

## CC(C)C[C@@H]1NC(=O)[C@H](C(C)O)NC(=O)[C@H](CC(=O)O)NC(=O)[C@H](CO)NC(=O)[C@H](CCCNC(=N)N)N(C)C(=O)c2ccccc2CSC(C)(C)[C@@H](C(=O)N[C@@H](Cc2ccc(C(C)(C)C)cc2)C(=O)N[C@@H](CCC(=O)O)CC(=O)N[C@H](CCCCNC(=O)COCC(=O)NCCCC[C@@H](NC(=O)C[C@H](CCC(=O)O)NC(=O)[C@H](Cc2ccc(C(C)(C)C)cc2)NC(=O)[C@H]2NC(=O)[C@H](CC(C)C)NC(=O)[C@H](C(C)O)NC(=O)[C@H](CC(=O)O)NC(=O)[C@H](CO)NC(=O)[C@H](CCCNC(=N)N)N(C)C(=O)c3ccccc3CSC2(C)C)C(=O)O)C(=O)O)NC1=O (stereo partly drawn) [compound of formula (I)] (I: [NMeR]SD[Thr(3ξ)]L[Pen][Phe(4-tBu)][β3hE][dK]-OH / II: [NMeR]SD[Thr(3ξ)]L[Pen][Phe(4-tBu)][β3hE][dK]-OH; linker I:9-II:9 via Diglycolyl; linker I:N-I:6, II:N-II:6 via X1)
[1]; [3]
  proportion of subjects achieving clinical remission at Week 12, total: 33.3%
  proportion of subjects achieving clinical remission at Week 12, part being 450 mg BID dose: 26.7%
[1]; [4]
  proportion of subjects achieving clinical remission at Week 12, total: 40%
  proportion of subjects achieving clinical remission at Week 12, part being 450 mg BID dose: 26.7%
[1]; [5]
  proportion of subjects achieving clinical remission at Week 12, total: 13.3%
  proportion of subjects achieving clinical remission at Week 12, part being 450 mg BID dose: 6.7%
[1]; [6]
  proportion of subjects achieving clinical remission at Week 12, total: 18.8%
  proportion of subjects achieving clinical remission at Week 12, part being 450 mg BID dose: 6.3%
[2]
  half-life: > 120 min
